Measured values reported in patent publication US20210108198A1, “APPLICATION OF COMPOUND OR TRADITIONAL CHINESE MEDICINE EXTRACT IN PREPARATION OF NUCLEIC ACID DELIVERY AGENT AND RELATED PRODUCTS THEREOF” (INSTITUTE OF BASIC MEDICAL SCIENCES CHINESE ACADEMY OF …, priority 2017, published 2021).
Entries after “also recorded” stand apart in the source; their conditions may differ.

Legend:
[1] = test system: protein expression of the corresponding knockdown genes in A549 cells; assay: Western blot of knockdown genes after lipid-mediated siRNA delivery into A549 cells; type: cell-based, human; conditions: LAMP2, XPN2, Ssu72, CPSF4 or β-actin siRNA 400 nM; reverse evaporation method; FIG. 82
Protocol: 3.3.1 MRC-5 cell (pulmonary embryonic fibroblast), and A549 cell (human lung adenocarcinoma cell) were cultured to logarithmic growth phase, and then plated into 12-well plates at a cell density of 6×10^5/1 mL medium/well; MRC-5 cells were cultured in Eagle's MEM medium (MEM, Gibco); A549 cells were cultured in Ham's F-12 medium (HyClone); followed by incubation overnight at 37° C., and the follow-up experiments were performed after the cells were attached to the walls.
4) Lipid nucleic acid mixture: the mixture of lipid and nucleic acid prepared from the step 2 were added into cells and mixed, and the final concentration of nucleic acid was 400 nM.
3.3.3 After 24 hours of treatment, the cells were stimulated with the stimulant (1 μg/mL poly (I:C) (P1530, Sigma-Aldrich) as double-stranded RNA viruses mimetics) or 3 ng/mL transforming growth factor TGFβ1 (Pepro Tech)). […]

A549 cells = assay: Digital PCR (ddPCR) detection of the efficiency of nucleic acid delivery by lipid; type: cell-based, human
Protocol: (§1) 2.2 Experimental method: the total cellular RNA was collected and extracted by TRIzol lysis buffer according to the above methods, and reverse transcribed to cDNA using High capacity cRNA Reverse Transcription Kit, and the cDNA from different groups was subject to digital PCR reaction. Refering to the QX200 Droplet Reader and QuantaSoft Software manual for the protocols, the results were analyzed using QuantaSoft software.
as §1, with “method:” for “method: the”, “total” for “total cellular”, “method,” for “methods,”, “subjected” for “subject”, “Refer” for “Refering”, “protocols;” for “protocols,”
(§2) 2.2 Experimental method: Total RNA was collected and extracted by TRIzol lysis buffer according to the above method, and reverse transcribed to cDNA using TaqMan™ MicroRNA Reverse Transcription KitHigh, and the cDNA from different groups was subjected to digital PCR reaction. Refer to the QX200 Droplet Reader and QuantaSoft Software manual for the protocols; the results were analyzed using QuantaSoft software.
as §2, with “reversed” for “reverse transcribed”, “High capacity cRNA” for “TaqMan™ MicroRNA”, “Kit,” for “KitHigh,”

## CCCCCCCCCCCCCCCCCCC[C@@H](O)[C@@H](N)CO [No. 41, Sphinganine (d22:0)]
[1]
  protein knockdown effect (Western blot): significantly higher than the inhibitory effect of HJT-sRNA-m7 mediated by RNAiMAX
A549 cells; boiling method, 6 hours
  delivery of HJT-sRNA-m7 dsRNA (ddPCR): could effectively deliver HJT-sRNA-m7 dsRNA into A549 cells; also recorded: the boiling method had better effects than reverse evaporation method
A549 cells; reverse evaporation method, 6 hours (No. 39: 6 hours, 12 hours)
  delivery of HJT-sRNA-m7 dsRNA (ddPCR): could effectively deliver HJT-sRNA-m7 dsRNA into A549 cells
